Columns and labels:
human EP2 receptor = biological target: T1, human EP2 receptor (Homo sapiens, UniProt P43116); experiment: Binding ability to human EP2 receptor ([3H]PGE2 displacement); conditions: read-out: pKi EP2 (converted)
T1 construct: expressed in transfected cells
Procedure: (§1) Membranes were prepared from cells stably transfected with human EP receptor cDNA. In brief, cells were cultured to confluency, scraped from culture flasks, and centrifuged (800 g, 8 minutes, 4° C.). Cells were twice washed in ice cold homogenisation buffer containing 10 mMTris-HCl, 1 mM EDTA. 2Na, 250 mM sucrose, 1 mM PMSF, 0.3 mM indomethacin, pH 7.4, homogenised and re-centrifuged as before. The supernatant was stored on ice and pellets re-homogenised and re-spun. Supernatants were pooled and centrifuged at 40000 g, 10 minutes, 4° C. Resultant membrane pellets were stored at −80° C. until use.
(§2) For assay, membranes expressing human EP4, EP3, EP2 or EP1 receptors were incubated in Millipore (MHVBN45) plates containing assay buffer, radiolabelled [^3H]PGE2 and 0.1 to 10 000 nM concentrations of compounds. Incubations were performed at suitable temperatures and for suitable times to allow equilibrium to be reached. Non-specific binding was determined in the presence of 10 uM PGE2. Bound and free radiolabel was separated by vacuum manifold filtration using appropriate wash buffers, and bound radiolabel was determined by scintillation counting. Constituents of each of the buffers are included in table 1 below.
(§3) This approach follows that set out in Kenakin, T. P., Pharmacologic analysis of drug receptor interaction. Raven Press, New York, 2nd edition.

human EP4 receptor = biological target: T2, human EP4 receptor (Homo sapiens, UniProt P35408); experiment: Binding ability to human EP4 receptor ([3H]PGE2 displacement); conditions: read-out: pKi EP4 (converted)
T2 construct: expressed in transfected cells
T2 sequence (P35408 whole entry): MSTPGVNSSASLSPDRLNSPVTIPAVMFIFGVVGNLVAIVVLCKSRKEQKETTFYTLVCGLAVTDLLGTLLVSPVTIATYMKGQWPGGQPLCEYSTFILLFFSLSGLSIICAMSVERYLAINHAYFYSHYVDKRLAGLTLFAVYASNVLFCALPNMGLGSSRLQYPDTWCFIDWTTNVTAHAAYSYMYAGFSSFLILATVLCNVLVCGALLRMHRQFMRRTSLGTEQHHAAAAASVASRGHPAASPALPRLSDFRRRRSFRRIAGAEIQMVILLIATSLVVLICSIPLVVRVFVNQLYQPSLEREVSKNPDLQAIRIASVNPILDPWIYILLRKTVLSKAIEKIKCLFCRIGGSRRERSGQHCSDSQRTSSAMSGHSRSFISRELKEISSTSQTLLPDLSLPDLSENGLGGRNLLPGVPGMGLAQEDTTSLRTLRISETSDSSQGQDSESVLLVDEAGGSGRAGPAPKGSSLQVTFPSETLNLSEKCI
Procedure: as §1
Incubations were performed at suitable temperatures and for suitable times to allow equilibrium to be reached. Non-specific binding was determined in the presence of 10 uM PGE2. Bound and free radiolabel was separated by vacuum manifold filtration using appropriate wash buffers, and bound radiolabel was determined by scintillation counting. Constituents of each of the buffers are included in table 1 below.
as §3

human EP3 receptor = biological target: T3, human EP3 receptor (Homo sapiens, UniProt P43115); experiment: Binding ability to human EP3 receptor ([3H]PGE2 displacement); conditions: membranes from cells stably transfected with human EP receptor cDNA; [3H]PGE2 2.5 nM; Cheng-Prusoff from IC50; read-out: pKi EP3 (converted)
T3 construct: expressed in transfected cells
T3 sequence (P43115 1-390): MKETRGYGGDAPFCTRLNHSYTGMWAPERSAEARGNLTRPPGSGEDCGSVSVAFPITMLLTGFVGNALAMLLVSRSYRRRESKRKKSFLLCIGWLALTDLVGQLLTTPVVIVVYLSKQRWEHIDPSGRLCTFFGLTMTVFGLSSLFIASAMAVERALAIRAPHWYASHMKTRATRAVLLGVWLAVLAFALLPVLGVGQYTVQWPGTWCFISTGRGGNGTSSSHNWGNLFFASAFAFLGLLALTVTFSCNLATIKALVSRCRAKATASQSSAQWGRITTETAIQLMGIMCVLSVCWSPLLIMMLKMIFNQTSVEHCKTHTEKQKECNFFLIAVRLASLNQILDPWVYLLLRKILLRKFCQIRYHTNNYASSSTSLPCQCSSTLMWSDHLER
Procedure: as §1, §2, §3

T1 sequence (P43116 whole entry): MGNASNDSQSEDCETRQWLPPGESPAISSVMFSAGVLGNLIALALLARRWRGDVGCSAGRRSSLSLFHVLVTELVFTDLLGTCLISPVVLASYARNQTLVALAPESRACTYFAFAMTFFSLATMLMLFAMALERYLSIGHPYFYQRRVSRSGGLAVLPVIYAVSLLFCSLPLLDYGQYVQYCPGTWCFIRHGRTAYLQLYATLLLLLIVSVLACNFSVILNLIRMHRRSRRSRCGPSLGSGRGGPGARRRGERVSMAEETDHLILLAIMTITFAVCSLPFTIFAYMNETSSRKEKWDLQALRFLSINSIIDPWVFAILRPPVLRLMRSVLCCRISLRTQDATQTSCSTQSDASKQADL

Row | Ki (human EP2 receptor) [µM] | Ki (human EP4 receptor) [µM] | Ki (human EP3 receptor) [µM] | SMILES
1 | > 10 | < 3.16 | > 10 | Cc1oc(C(=O)O)cc1CNc1ccc(-c2ccccc2)cc1 [Compound 160, 4-(Biphenyl-4-ylaminomethyl)-5-methyl-furan-2-carboxylic acid]
2 | > 10 | < 1 | > 10 | Cc1oc(C(=O)O)cc1CSc1ccc(-c2ccc(OC(F)F)cc2)cc1 [Compound 153, 4-(4′-Difluoromethoxy-biphenyl-4-ylsulphanylmethyl)-5-methyl-furan-2-carboxylic acid]
3 | > 3.16 | < 0.0316 | > 1 | Cc1ccccc1S(=O)(=O)NC(=O)c1cc(CSc2ccc(-c3ccc(OC(F)F)cc3)cc2)c(C)o1 [Compound 154, N-[4-(4′-Difluoromethoxy-biphenyl-4-ylsulphanylmethyl)-5-methyl-furan-2-carbonyl]-2-methyl-benzenesulphonamide]
4 | > 10 | < 10 | > 10 | Cc1oc(C(=O)O)cc1COc1ccc(-c2ncccn2)cc1 [Compound 137, 5-Methyl-4-(4-pyrimidin-2-yl-phenoxymethyl)-furan-2-carboxylic acid]
5 | > 10 | < 0.316 | > 10 | CCOc1ccc(-c2ccc(OCc3cc(C(=O)O)oc3C)cc2)cc1 [Compound 98, 4-(4′-Ethoxy-biphenyl-4-yloxymethyl)-5-methyl-furan-2-carboxylic acid]
6 | > 10 | < 10 | > 10 | Cc1oc(C(=O)O)cc1COc1ccc(-c2ccccc2OC(F)(F)F)cc1 [Compound 115, 5-Methyl-4-(2′-trifluoromethoxy-biphenyl-4-yloxymethyl)-furan-2-carboxylic acid]
7 | > 10 | < 3.16 | > 10 | CC(C)c1oc(C(=O)O)cc1COc1ccc2c(c1)oc1ccccc12 [Compound 87, 4-(Dibenzofuran-3-yloxymethyl)-5-isopropyl-furan-2-carboxylic acid]
8 | > 3.16 | < 1 | > 10 | Cc1oc(C(=O)O)cc1COc1ccc(-c2cccc(F)c2)cc1 [Compound 104, 4-(3′-Fluoro-biphenyl-4-yloxymethyl)-5-methyl-furan-2-carboxylic acid]
9 | > 10 | < 3.16 | > 10 | O=C(O)c1cc(COc2cccc(-c3ccccc3)c2)c(C(F)(F)F)o1 [Compound 91, 4-(Biphenyl-3-yloxymethyl)-5-trifluoromethyl-furan-2-carboxylic acid]
10 | > 10 | < 3.16 | > 10 | Cc1oc(C(=O)O)cc1CCOc1ccc2c(c1)oc1ccccc12 [Compound 74, 4-[2-(Dibenzofuran-3-yloxy)-ethyl]-5-methyl-furan-2-carboxylic acid]
11 | > 10 | < 1 | > 10 | Cc1oc(S(=O)(=O)NC(=O)c2ccncc2)cc1COc1ccc(-c2ccccc2)cc1 [Compound 67, 4-(Biphenyl-4-yloxymethyl)-5-methyl-furan-2-sulphonic acid (pyridine-4-carbonyl)-amide]
12 | > 10 | < 1 | > 10 | CCCC(=O)NS(=O)(=O)c1cc(COc2ccc(-c3ccccc3)cc2)c(C)o1 [Compound 61, 4-(Biphenyl-4-yloxymethyl)-5-methyl-furan-2-sulphonic acid butyryl-amide]
13 | > 3.16 | < 10 | > 10 | O=C(O)c1cc(COc2ccc3oc4ccccc4c3c2)co1 [Compound 78, 4-(Dibenzofuran-2-yloxymethyl)-furan-2-carboxylic acid]
14 | > 3.16 | < 3.16 | > 10 | O=C(O)c1cc(COc2ccc3c(c2)oc2ccccc23)co1 [Compound 81, 4-(Dibenzofuran-3-yloxymethyl)-furan-2-carboxylic acid]
15 | > 10 | < 0.1 | > 10 | COc1ccc(-c2ccc(OCc3cc(C(=O)NS(=O)(=O)c4c(C)noc4C)oc3C)cc2)c(OC)c1 [Compound 142, 3,5-Dimethyl-isoxazole-4-sulphonic acid [4-(2′,4′-dimethoxy-biphenyl-4-yloxymethyl)-5-methyl-furan-2-carbonyl]-amide]
16 | > 10 | < 0.316 | > 10 | COc1ccc(-c2ccc(NC(=O)c3cc(C(=O)NS(=O)(=O)c4ccccc4)oc3C)cc2)cc1 [Compound 25, 5-Benzenesulfonylaminocarbonyl-2-methyl-furan-3-carboxylic acid (4′-methoxy-biphenyl-4-yl)-amide]
17 | > 10 | < 0.1 | > 10 | COc1ccc(-c2ccc(OCc3cc(CCC(=O)NS(=O)(=O)c4ccccc4)oc3C)cc2)cc1 [Compound 40, N-{3-[4-(4′-Methoxy-biphenyl-4-yloxymethyl)-5-methyl-furan-2-yl]-propionyl}-benzene sulfonamide]
18 | – | < 0.1 | – | COc1ccc(-c2ccc(OCc3cc(S(=O)(=O)NC(=O)c4c(C)noc4C)oc3C)cc2)cc1 [Compound 69, 4-(4′-Methoxy-biphenyl-4-yloxymethyl)-5-methyl-furan-2-sulphonic acid (3,5-dimethyl-isoxazole-4-carbonyl)-amide]
19 | > 10 | – | > 10 | COc1ccc(-c2ccc(OCc3cc(C(=O)NS(=O)(=O)Cc4ccccc4)oc3C)cc2)cc1 [Compound 6, N-[4-(4′-Methoxy-biphenyl-4-yloxymethyl)-5-methyl-furan-2-carbonyl]-C-phenyl-methanesulfonamide]
20 | > 10 | – | > 10 | COc1ccc(-c2ccc(OCc3cc(C(=O)NS(=O)(=O)c4c(C)noc4C)oc3C)cc2)c(C)c1 [Compound 146, 3,5-Dimethyl-isoxazole-4-sulphonic acid [4-(4′-methoxy-2′-methyl-biphenyl-4-yloxymethyl)-5-methyl-furan-2-carbonyl]-amide]
21 | > 10 | – | > 10 | Cc1ccccc1S(=O)(=O)NC(=O)c1cc(CNc2ccc(-c3ccccc3)cc2)c(C)o1 [Compound 162, N-[4-(Biphenyl-4-ylaminomethyl)-5-methyl-furan-2-carbonyl]-2-methyl-benzenesulfonamide]
22 | > 10 | – | > 10 | COc1ccc(-c2ccc(OCc3cc(C(=O)NS(=O)(=O)c4ccccc4C)oc3C)cc2)nc1 [Compound 134, N-{4-[4-(5-Methoxy-pyridin-2-yl)-phenoxymethyl]-5-methyl-furan-2-carbonyl}-2-methyl-benzenesulphonamide]
23 | > 10 | – | > 10 | COc1ccc(-c2ccc(OCc3cc(C(=O)O)oc3C)cc2)nc1 [Compound 53, 4-[4-(5-Methoxy-pyridin-2-yl)-phenoxymethyl]-5-methyl-furan-2-carboxylic acid]
24 | > 10 | – | > 10 | COc1ccc(-c2ccc(OCc3cc(C(=O)NS(=O)(=O)c4ccc(O)cc4)oc3C)cc2)cc1 [Compound 13, 4-Hydroxy-N-[4-(4′-methoxy-biphenyl-4-yloxymethyl)-5-methyl-furan-2-carbonyl]-benzenesulfonamide]
25 | > 10 | – | > 10 | Cc1oc(C(=O)O)cc1CCOc1ccc(-c2ccccc2)cc1 [Compound 72, 4-[2-(Biphenyl-4-yloxy)-ethyl]-5-methyl-furan-2-carboxylic acid]
26 | > 10 | – | > 10 | Cc1oc(CCC(=O)O)cc1COc1ccc(-c2ccccc2)cc1 [Compound 37, 3-[4-(Biphenyl-4-yloxymethyl)-5-methyl-furan-2-yl]-propionic acid]
27 | > 10 | – | > 10 | COc1ccc(-c2ccc(OCc3cc(C(=O)NS(=O)(=O)CCCN4CCOCC4)oc3C)cc2)cc1 [Compound 59, 3-Morpholin-4-yl-propane-1-sulphonic acid [4-(4′-methoxy-biphenyl-4-yloxymethyl)-5-methyl-furan-2-carbonyl]-amide]
28 | > 10 | – | > 10 | COc1ccc(-c2ccc(OCc3cc(C(=O)NS(=O)(=O)c4ccccc4)oc3C)cc2)c(C)c1 [Compound 145, N-[4-(4′-Methoxy-2′-methyl-biphenyl-4-yloxymethyl)-5-methyl-furan-2-carbonyl]-benzenesulphonamide]
29 | > 10 | – | > 10 | COc1ccccc1-c1ccc(OCc2cc(C(=O)O)oc2C)cc1 [Compound 126, 4-(2′-Methoxy-biphenyl-4-yloxymethyl)-5-methyl-furan-2-carboxylic acid]
